Results taken from US20220031632A1, “NANOPARTICLE COMPOSITIONS AND USES THEREOF” (OP-T LLC, priority 2020, published 2022).
Entries after “also recorded” stand apart in the source; their conditions may differ. Where no end group is shown, it is not given here.

Key:
T1D dogs = assay: Longstanding T1D domestic dogs treated with i.v. infusions of dog 15-mer peptide; assay type: in vivo; conditions: before first infusion vs several weeks after initiation
Protocol: Four longstanding T1D domestic dogs were treated with i.v. infusions of dog 15-mer peptide, twice in the first week then weekly thereafter. Levels of fructosamine were measured before the first infusion and several weeks after initiation of treatment.

[1] = tested on: CD3+ T cells and antigen presenting cells (APC); assay: Fluorescent peptide binding to PBMCs from MS patients by flow cytometry; assay type: cell-based, human; conditions: fluorescenated peptides
Protocol: In some embodiments, the size (length—i.e. number of amino acids) of the peptide may matter for disease prevention capacity. […] In some embodiments, use of different length peptides may be advantageous in treatment of different diseases as each disease may be driven primarily by one cell type or another.
Peripheral blood mononuclear cells from MS patients were stained then gated on CD3^+ for T cells or on CD3^− for antigen presenting cells (APC) were analyzed for peptide binding levels. Different cells bind different peptides with different intensities as determined by flow cytometry. There were 24 subjects in each test.

NOD mice [2] = assay: Diabetes prevention in NOD mice treated with peptides; assay type: in vivo, mouse; conditions: for diabetes onset (blood glucose >250 mg/dl): NOD mice treated with different sizes of peptides, n=10
Protocol: (a) The amino acid sequence of mouse CD154 is depicted, with amino acids known to interact with CD40 shown in bold. A 15 amino acid sequence is highlighted in grey and aligned with the same motif in human CD154. A previously studied peptide is highlighted. (b) NOD mice were treated with different sizes of peptides, as indicated (n=10 in all groups). Mice were monitored for diabetes onset (blood glucose >250 mg/dl). Differences were significant by two-way ANOVA; p<0.0001.
FIG. 3 includes sub-parts FIGS. 3A and 3B. […] The percent of subjects that developed diabetes in the KGYY15 subjects was much lower, as compared with the RGD peptide and the scrambled peptide. KGYY15 diabetes prevention is sequence dependent, and several amino acid positions are critical for its function. (a) KGYY15-treated mice were compared with mice treated with a scrambled peptide or a peptide targeting the RGD region (sequences indicated above the graph). (b) KGYY15-treated mice were compared with mice treated with a 15-mer peptide series in which single amino acids, as indicated, were substituted for glycine. L137; Y144; T146; M147; N150; n=10 in all groups shown in (a) and (b), except for L137, where n=9. Differences were significant by two-way ANOVA; p<0.0001

NOD mice [3] = assay: Reversal of overt hyperglycemia in new onset diabetic NOD mice, daily KGYY15; assay type: in vivo, mouse
Protocol: FIG. 2, which includes FIG. 2A-2D, is based on a study of the use of KGYY15 to treat NOD mice. […] Immediately after diabetes onset (blood glucose >250 mg/dl; n=9), mice were treated daily with KGYY15 and blood glucose was monitored. […] FIG. 2C is a graph showing Islet insulitis scores in reversed and non-reversed mice: 0, no infiltration (black); 1, 25% infiltration (striped); 2, 50% infiltration (dark grey); 3, 75% infiltration (light grey); 4, 100% infiltration (white). FIG. 2D is a graph showing Islet insulin granulation scores: 0, less than 25% granulation; 1, 25-50% granulation; 2, 50-75% granulation; […], 75-100% granulated. Data is represented as the mean±SEM; ****p<0.0001 by two-tailed unpaired t test.

NOD mice [4] = assay: Immunogenicity: serum antibodies to KGYY15 or sCD154 by western blot; assay type: in vivo, mouse; conditions: 1 mg/kg weekly for 7 weeks
Protocol: (§1) NOD mice were injected weekly for 7 weeks with 1 mg/kg of KGYY15. In FIG. 4A, serum was collected from injected or control mice and used, followed by anti-mouse-IgG secondary antibody, in western blots for detection of KGYY15 peptide or soluble CD154 (sCD154; KGYY15 and sCD154 sizes are indicated with arrows). […] As a standard, KGYY15-biotin was run and detected with streptavidin-HRP. Experiment was done twice, pooling serum from 2 and 3 mice in each experiment, respectively. In FIGS. 4B and 4C, sorted splenic APC from KGYY15 treated mice were loaded with KGYY15 or not. T cells from KGYY15 treated mice were CFSE labelled then exposed to the autologous APC (+/− KGYY15) and incubated for 5 days. […] Representative histogram of CFSE dilution: Black line—T cells alone; Grey tinted—T cells+APC alone; Dotted line—T cells+APC loaded with KGYY15. Graph depicts cumulative data (n=5 in each group).

[5] = tested on: T cells from KGYY15 treated mice; assay: T cell proliferation (CFSE dilution) with autologous APC loaded with KGYY15; assay type: cell-based, mouse; conditions: APC +/- KGYY15, 5 days, n=5
Protocol: as §1

ApoE−/− mice = assay: Glucose tolerance testing in ApoE-/- mice; assay type: in vivo, mouse; conditions: n=14
C57BL/6 mice = assay: EAE mouse model, daily clinical score; assay type: in vivo
Description: EAE was then induced and the mice started to show symptoms on day 10, which is standard for these mice under these conditions. This is further depicted in FIG. 11. On days 13, 20, and 27, the KGYY6 group of mice receive a boost of peptide, while the other group again received PBS via IV injection. […] By day 13, there was a statistically significant difference that lasted throughout the experiment. In FIG. 11—*—asterisks—denote p-value: *—one asterisk is <0.05; **—two asterisks is <0.01; ***—three asterisks is <0.001; and ****-four asterisks is <0.0001. This is a two-way ANOVA with Sidak's multiple comparisons test. Arrows in above lines in FIG. 11 represent days −3, −1, 13, 20, and 27, which correspond to days on which the mice received the KGYY6. Mice were disease scored daily in this study as described in more detail below. […]
All mice were monitored daily for disease and scored in the following manner: 0—no abnormalities; 0.5—clutching hind limbs; 1—limp tail or weak hind limbs and/or wobbly gait; 1.5—limp tail and clutching hind limbs; 2—limp tail and weak hind limbs and/or wobbly gait wherein the mouse supports itself and propels itself using hind limbs; 2.5—limp tail and weak hind limbs and/or wobbly gait wherein the mouse cannot support and propel itself using hind limbs, but the paws are moving. […]

For “VLRWA PKGYY TISSN (chain 1 VLRWAPKGYYTISSN; chain 2 VLRWAPKGYYTISSN) [Dog 15-mer peptide]”, the fructosamine levels (T1D dogs) was “significantly decreases fructosamine levels”.
For “15-mer: fluorescenated version of the 15-mer peptide used to stain PBMCs from MS patients (VLRWAPKGYYTISSN; also: fluorescent label)”, the “binding to T cells compared with APCs” value [1] was “bound better to T cells than APCs”.
“VLQWAKKGYYTMKSN (VLQWAKKGYYTMKSK) [KGYY15]” was tested, and the “diabetes onset (blood glucose >250 mg/dl)” value (NOD mice [2]) was “prevent the onset of T1D”, the “diabetes onset (blood glucose >250 mg/dl)” value (NOD mice [2]; listed as 15-mer CD154-derived peptide) was “prevents diabetes” and the “percent of subjects that developed diabetes” value (NOD mice [2]; NOD mice, 35 weeks, compared with RGD peptide and scrambled peptide) was “much lower”. The “reversal of overt hyperglycemia” value (NOD mice [3]; NOD mice treated daily after diabetes onset, n=9) was “reverses overt hyperglycemia”, the “mice with reversed hyperglycemia” value (NOD mice [3]; new onset diabetic mice) was “approximately 60%” and the “antibody production to the peptide” value (NOD mice [4]; serum western blot) was “no antibodies to the peptide had been generated; also recorded: does not elicit antibody production”. The immunogenicity (NOD mice [4]; NOD mice, 1 mg/kg) was “does not appear to be immunogenic” and the “T cell proliferation by CFSE dilution” value [5] was “no proliferation was detected”.
For AKKGYY [KGYY6], the glucose tolerance (ApoE−/− mice) was “statistically significant improvement”, the insulin sensitivity (ApoE−/− mice) was “statistically significant improvement; also recorded: may improve” and the “severity of EAE (disease course, clinical score)” value (C57BL/6 mice; i.v. pretreatment before EAE induction plus boosts, vs PBS control) was “significantly less severe; also recorded: ameliorates EAE; also recorded: significantly reduced the severity of the EAE symptoms”. For the same substance, the “severity of EAE” value (C57BL/6 mice; no pretreatment, treatment delayed until visible disease symptoms) was “may significantly reduce the severity of EAE”.
For “6-mer: fluorescenated version of the 6-mer peptide used to stain PBMCs from MS patients (AKKGYY; also: fluorescent label)”, the “binding to T cells compared with APCs” value [1] was “stained both T cells and APCs equally well”.
